Assay results as given in patent US5621010A, “Urea derivatives and their use as ACAT inhibitors” (Nisshin Flour Milling Co., Ltd., priority 1993, dated 1997).

Experiments:
[1] = Cholesterol-lowering activity in hypercholesteremic rats; format: in vivo, Sprague-Dawley male rats; settings: 30 mg/kg oral, in 0.5% methylcellulose; plasma cholesterol prior to and 5 hrs after administration
Method: Sprague-Dawley male rats were given a powdery feed containing 1% cholesterol and 0.5% cholic acid in an amount of 15 g per day per animal for 3 days to produce hypercholesteremic rats. Four days later, a compound suspended in 0.5% methylcellulose was administered orally at a dose of 30 mg/kg. Blood was drawn prior to and 5 hrs after the administration of the compound, for which the plasma cholesterol level was measured using a commercially available assay kit (Cholesterol E Test Wako, Wako Junyaku K.K.).

[2] = tested on: ACAT (liver microsome fractions of male rabbits); assay: ACAT inhibitory activity: formation of labelled cholesteryl esters from [1-14C]oleoyl-CoA and endogenous cholesterol; format: biochemical, rabbit; settings: compound added at 10^-7 M
Method: The enzyme preparation, ACAT was prepared from liver microsme fractions of male rabbits according to the method of E. E. Largis et al. (Journal of Lipid Research, Vol. 30, pages 681-690, 1989). The activity was calculated by assaying the amount of the labelled cholesteryl esters formed from [1-^14 C]oleoyl-CoA and endogenous cholesterol according to the method of Kazuichi NATORI et al. (Japan J. Pharmacol., Vol. 42, pages 517-523, 1986).
The result is shown in Table 1, in which percent inhibition of the formation of the labelled cholesteryl esters with a compound added at 10^-7 M is indicated as index for the ACAT inhibitory activity.

Human LDL = assay: Antioxidative activity: inhibition of MDA formation from LDL incubated with cupric sulfate; format: biochemical; settings: compound 10^-5 M; cupric sulfate 5×10^-6 M; 5 hrs; compared with control
Method: Human LDL was incubated in the presence of cupric sulfate (5×10^-6 M) and in the presence or absence of a compound (10^-5 M) for 5 hrs. After the incubation, the peroxidation of low-density lipoproteins (LDL) is evaluated by the formation of malondialdehyde (MDA), which is a sort of lipid peroxides according to the method of Simon J. T. Mao et al. (J. Med. Chem., Vol. 34, pages 298-302, 1991). Activity of the compound is shown by percent inhibition of the MDA formation as compared with control.

Structure (SMILES) | Percent Reduction of Cholesterol [1] | ACAT Inhibition [2] | Antioxidant Activity (percent inhibition of the MDA formation) (Human LDL)
CCCCCCCN(C)C(=O)Nc1ccccc1/C=C/c1cc(C(C)(C)C)c(O)c(C(C)(C)C)c1 [Example 105, N-[2-(3,5-di-tert-butyl-4-hydroxystyryl)phenyl]-N'-methyl-N'-heptylurea] | 45.9% |  | 
CC(C)(C)c1cc(CCc2ccccc2NC(=O)NCc2ccco2)cc(C(C)(C)C)c1O [Example 30, N-[2-(3,5-di-tert-butyl-4-hydroxyphenethyl)phenyl]-N'-[(2-furyl)methyl]urea] |  | 84% | 92%
CCSCCNC(=O)Nc1ccccc1CCc1cc(C(C)(C)C)c(O)c(C(C)(C)C)c1 [Example 38, N-[2-(3,5-di-tert-butyl-4-hydroxyphenethyl)phenyl]-N'-(2-ethylthioethyl)urea] |  | 71% | 94%
CC(C)(C)c1cc(CCc2ccccc2NC(=O)NC2CCN(Cc3ccc(F)cc3F)CC2)cc(C(C)(C)C)c1O [Example 80, N-[2-(3,5-di-tert-butyl-4-hydroxyphenethyl)phenyl]-N'-[1-(2,4-difluorobenzyl)-4-pyperidyl]urea] |  | 92% | 96%
CC(C)(C)c1cc(CCc2ccccc2NC(=O)NC2CCCCC2)cc(C(C)(C)C)c1O [Example 17, N-[2-(3,5-di-tert-butyl-4-hydroxyphenethyl)phenyl]-N'-cyclohexylurea] |  | 92% | 99%
CC(C)(C)c1cc(CCc2ccccc2NC(=O)N2CCN(Cc3ccccc3)CC2)cc(C(C)(C)C)c1O [Example 114, 1-Benzyl-4-[N-[2-(3,5-di-tert-butyl-4-hydroxyphenethyl)phenyl]carbamoyl]piperazine] |  | 82% | 98%
CN(C)c1ccc(CCNC(=O)Nc2ccccc2CCc2cc(C(C)(C)C)c(O)c(C(C)(C)C)c2)cc1 [Example 75, N-[2-(3,5-di-tert-butyl-4-hydroxyphenethyl)phenyl]-N'-(4-dimethylaminophenethyl)urea] |  | 88% | 95%
CC(C)(C)c1cc(CCc2ccccc2NC(=O)NC2CCC(C(C)(C)C)CC2)cc(C(C)(C)C)c1O (stereo not drawn) [Example 52, N-[2-(3,5-di-tert-butyl-4-hydroxyphenethyl)phenyl]-N'-(4-tert-butylcyclohexyl)urea] |  | 97% | 94%
CC(C)(C)c1cc(CCc2cc(F)cc(F)c2NC(=O)NC2CCN(Cc3ccccc3)CC2)cc(C(C)(C)C)c1O [Example 108, N-[2-(3,5-di-tert-butyl-4-hydroxyphenethyl)-4,6-difluorophenyl]-N'-(1-benzyl-4-piperidyl)urea] | 71.8% | 97% | 93%
CN(C(=O)Nc1ccccc1CCc1cc(C(C)(C)C)c(O)c(C(C)(C)C)c1)C1CCN(Cc2ccccc2)CC1 [Example 92, N-[2-(3,5-di-tert-butyl-4-hydroxyphenethyl)phenyl]-N'-(1-benzyl-4-piperidyl)-N'-methylurea] | 79.9% | 99% | 96%
CC(C)(C)CC(C)(C)NC(=O)Nc1ccccc1CCc1cc(C(C)(C)C)c(O)c(C(C)(C)C)c1 [Example 14, N-[2-(3,5-di-tert-butyl-4-hydroxyphenethyl)phenyl]-N'-(2,4,4-trimethyl-2-pentyl)urea] |  | 93% | 98%
CN1CC2CC(NC(=O)Nc3ccccc3CCc3cc(C(C)(C)C)c(O)c(C(C)(C)C)c3)CC(C1)N2C (stereo not drawn) [Example 39, N-[2-(3,5-di-tert-butyl-4-hydroxyphenethyl)phenyl]-N'-(3,9-dimethyl-3,9-diazabicyclo[3.3.1]-7-nonyl)urea] |  | 88% | 87%
CC(C)(C)CN1CCC(NC(=O)Nc2ccccc2CCc2cc(C(C)(C)C)c(O)c(C(C)(C)C)c2)CC1 [Example 97, N-[2-(3,5-di-tert-butyl-4-hydroxyphenethyl)phenyl]-N'-[1-(2,2-dimethylpropyl)-4-piperidyl]urea] |  | 89% | 96%
CC(C)(C)c1cc(CCc2ccccc2NC(=O)N(Cc2ccccc2)Cc2ccccc2)cc(C(C)(C)C)c1O [Example 42, N-[2-(3,5-di-tert-butyl-4-hydroxyphenethyl)phenyl]-N',N'-dibenzylurea] |  | 95% | 97%
CC(C)(C)c1cc(CCc2ccccc2NC(=O)NC2CCN(Cc3ccc(C(F)(F)F)cc3C(F)(F)F)CC2)cc(C(C)(C)C)c1O [Example 85, N-[2-(3,5-di-tert-butyl-4-hydroxyphenethyl)phenyl]-N'-[1[-2,4-bis(trifluoromethyl)benzyl]-4-piperidyl]urea] |  | 97% | 94%
CC(C)(C)c1cc(CCc2ccccc2NC(=O)NC2CCCCCC2)cc(C(C)(C)C)c1O [Example 4, N-[2-(3,5-di-tert-butyl-4-hydroxyphenethyl)phenyl]-N'-cycloheptylurea] |  | 95% | 98%
CC(C)(C)c1cc(CCc2ccccc2NC(=O)N2CCC(Cc3ccccc3)CC2)cc(C(C)(C)C)c1O [Example 115, 4-Benzyl-1-[N-[2-(3,5-di-tert-butyl-4-hydroxyphenethyl)phenyl]carbamoyl]piperidine] |  | 87% | 98%
CC(C)(C)c1cc(CCc2ccccc2NC(=O)NCCc2ccccc2)cc(C(C)(C)C)c1O [Example 5, N-[2-(3,5-di-tert-butyl-4-hydroxyphenethyl)phenyl]-N'-phenethylurea] |  | 89% | 100%
CN(C(=O)Nc1ccccc1CCc1cc(C(C)(C)C)c(O)c(C(C)(C)C)c1)C1CCCN(Cc2ccccc2)C1 (stereo not drawn) [Example 99, N-[2-(3,5-di-tert-butyl-4-hydroxyphenethyl)phenyl]-N'-(1-benzyl-3-piperidyl)-N'-methylurea] |  | 100% | 95%
CC(C)(C)c1cc(CCc2ccccc2NC(=O)N2CCN(c3ccccc3)CC2)cc(C(C)(C)C)c1O [Example 124, 1-[N-[2-(3,5-di-tert-butyl-4-hydroxyphenethyl)phenyl]carbamoyl]-4-phenylpiperazine] |  | 81% | 95%
CC(C)(C)c1cc(CCc2ccccc2NC(=O)N2CCc3ccccc3C2)cc(C(C)(C)C)c1O [Example 117, 2-[N-[2-(3,5-di-tert-butyl-4-hydroxyphenethyl)phenyl]carbamoyl]-1,2,3,4-tetrahydroisoquinoline] |  | 91% | 97%
CCCCCCCNC(=O)Nc1ccccc1CCc1cc(C(C)(C)C)c(O)c(C(C)(C)C)c1 [Example 12, N-[2-(3,5-di-tert-butyl-4-hydroxyphenethyl)phenyl]-N'-heptylurea] |  | 91% | 94%
